This is an account of results in patent US20250280828A1, “FUNGICIDAL COMPOSITIONS” (SYNGENTA CROP PROTECTION AG, priority 2020, published 2025).

This test concerns Phakopsora pachyrhizi. Kind of test: Preventative control against Phakopsora pachyrhizi (Asian soybean rust) / soybean / leaf disc. It is filed as in vivo. Particulars: foliar, evaluation 11 to 14 days after inoculation, read-out: Combined inhibition (observed); for inhibition at 0.4 g/ha: single active ingredient at 0.4 g/ha; for inhibition at 0.8 g/ha: single active ingredient at 0.8 g/ha. How it is done:
Whole soybean plants are treated with the recited compositions of active ingredients four weeks after planting. One day after spraying application leaf discs are cut from the first trifoliate leaf. Five repetitions at each rate are conducted. The leaf discs are inoculated with Phakopsora pachyrhizi one day after treatment. Evaluation of the leaf discs is conducted 11 to 14 days after inoculation and the biological activity is derived from the relation of the treated compared to untreated, infested check plants. The rates of the active ingredients used are given in Tables 1 to 6 as g active ingredient (a.i.)/ha. Results from the tests outlined above are shown below in Tables 1 to 6. […] According to COLBY, in mathematical terms the synergism factor SF corresponds to O/E. In the agricultural practice an SF of […] indicates significant improvement over the purely complementary addition of activities (expected activity), while an SF of ≤0.9 in the practical application routine signals a loss of activity compared to the expected activity.

What is called inhibition is the drop in the measured response relative to a control, in per cent. In the case of `CCC(=O)Oc1c(OC)ccnc1C(=O)N[C@@H](C)C(=O)O[C@@H](C)[C@@H](C)c1ccccc1C` [A.03, [(1S,2S)-1-methyl-2-(o-tolyl)propyl](2S)-2-[(4-methoxy-3-propanoyloxy-pyridine-2-carbonyl)amino]propanoate], the inhibition at 0.4 g/ha was determined as 10% and the inhibition at 0.8 g/ha stood at 42%. Also, the inhibition at 0.2 g/ha (single active ingredient at 0.2 g/ha) turned out to be 0%.

`CON(Cc1ccc(-c2noc(C(F)(F)F)n2)cc1)C(=O)C1CC1` [B.01, N-methoxy-N-[[4-[5-(trifluoromethyl)-1,2,4-oxadiazol-3-yl]phenyl]methyl]cyclopropanecarboxamide]: the inhibition at 0.8 g/ha was 65%.

For the molecule `COC(C)C(=O)N(Cc1ccc(-c2noc(C(F)(F)F)n2)cc1)OC` (stereo not shown) [B.02, N,2-dimethoxy-N-[[4-[5-(trifluoromethyl)-1,2,4-oxadiazol-3-yl]phenyl]methyl]propanamide], the inhibition at 0.4 g/ha was found to be 64%.

Turning to `CCN(Cc1ccc(-c2noc(C(F)(F)F)n2)cc1)C(=O)C(C)C` [B.03, N-ethyl-2-methyl-N-[[4-[5-(trifluoromethyl)-1,2,4-oxadiazol-3-yl]phenyl]methyl]propanamide], the inhibition at 0.4 g/ha was 21% and the inhibition at 0.8 g/ha is 55%.

With `CNC(=O)N(Cc1ccc(-c2noc(C(F)(F)F)n2)cc1)OC` [B.04, 1-methoxy-3-methyl-1-[[4-[5-(trifluoromethyl)-1,2,4-oxadiazol-3-yl]phenyl]methyl]urea], the inhibition at 0.4 g/ha is 44%.

On to `CCNC(=O)N(Cc1ccc(-c2noc(C(F)(F)F)n2)cc1)OC` [B.06, 3-ethyl-1-methoxy-1-[[4-[5-(trifluoromethyl)-1,2,4-oxadiazol-3-yl]phenyl]methyl]urea], for which the inhibition at 0.4 g/ha is 22%.

As to `CCOC(=O)c1cnn(Cc2ccc(-c3noc(C(F)(F)F)n3)cc2)c1` [B.10, ethyl 1-[[4-[5-(trifluoromethyl)-1,2,4-oxadiazol-3-yl]phenyl]methyl]pyrazole-4-carboxylate], the inhibition at 0.4 g/ha was found to be 55%.
